Measured values from US20230276703A1, “ORGANIC SEMICONDUCTOR MATERIAL” (The University of Tokyo, priority 2020, published 2023).

Assay: Solvent solubility evaluation in o-dichlorobenzene
Format: physicochemical
Details: heated at 100° C., visual confirmation of dissolution, (w/Vd)×100
Method: Approximately 1 mg of each compound (accurate weight was w (mg)) was weighed in a sample tube, and 20 μL of o-dichlorobenzene was added thereto by using a micropipette. The sample tube was capped and heated at 100° C. by a hot plate. Whether or not the compound was dissolved was visually confirmed. When the compound was not dissolved, the operation of adding o-dichlorobenzene in an amount of 20 μL per addition until the compound was dissolved and heating to 100° C. was repeated.
The solubility (wt. %) of the compound was calculated based on the following formula. Note that V in the formula is a volume (μL) of the o-dichlorobenzene added to dissolve the compound, and d is a density (g/cm^3) of the o-dichlorobenzene.
Solubility (%)=(w/Vd)×100

Solubility (%) | Compound
0.019% | CCCCCCCCN1C(=O)c2ccc3c4ncc5c6c(ccc(c7ncc(c2c37)C1=O)c64)C(=O)N(CCCCCCCC)C5=O [Compound (X), reference compound]
0.49% | CCCCCCCCN1C(=S)c2cnc3c4ccc5c6c(cnc(c7ccc1c2c73)c64)C(=S)N5CCCCCCCC [Compound (III)]
0.027% | CCCN1C(=O)c2cnc3c4c(C#N)cc5c6c(cnc(c7c(C#N)cc1c2c37)c64)C(=O)N5CCC [Compound (VI)]
<0.0007% | O=C1c2ccc3c4ncc5c6c(ccc(c7ncc(c2c37)C(=O)N1CCc1ccccc1)c64)C(=O)N(CCc1ccccc1)C5=O [Compound (IX), reference compound]
0.52% | CCCCCCN1C(=O)c2cnc3c4c(C#N)cc5c6c(cnc(c7c(C#N)cc1c2c37)c64)C(=O)N5CCCCCC [Compound (VIII)]
0.58% | CCCCCCCCN1C(=O)c2cnc3c4ccc5c6c(cnc(c7ccc1c2c73)c64)C(=O)N5CCCCCCCC [Compound (II)]
